What was measured:
Glucocorticoid receptor [1] = molecular target: T1, Glucocorticoid receptor (Homo sapiens, UniProt P04150); experiment: The effective concentration in CV-1 cells for glucocorticoid response element activation (GRE).; assay type: functional, cell-based
T1 sequence (P04150 whole entry): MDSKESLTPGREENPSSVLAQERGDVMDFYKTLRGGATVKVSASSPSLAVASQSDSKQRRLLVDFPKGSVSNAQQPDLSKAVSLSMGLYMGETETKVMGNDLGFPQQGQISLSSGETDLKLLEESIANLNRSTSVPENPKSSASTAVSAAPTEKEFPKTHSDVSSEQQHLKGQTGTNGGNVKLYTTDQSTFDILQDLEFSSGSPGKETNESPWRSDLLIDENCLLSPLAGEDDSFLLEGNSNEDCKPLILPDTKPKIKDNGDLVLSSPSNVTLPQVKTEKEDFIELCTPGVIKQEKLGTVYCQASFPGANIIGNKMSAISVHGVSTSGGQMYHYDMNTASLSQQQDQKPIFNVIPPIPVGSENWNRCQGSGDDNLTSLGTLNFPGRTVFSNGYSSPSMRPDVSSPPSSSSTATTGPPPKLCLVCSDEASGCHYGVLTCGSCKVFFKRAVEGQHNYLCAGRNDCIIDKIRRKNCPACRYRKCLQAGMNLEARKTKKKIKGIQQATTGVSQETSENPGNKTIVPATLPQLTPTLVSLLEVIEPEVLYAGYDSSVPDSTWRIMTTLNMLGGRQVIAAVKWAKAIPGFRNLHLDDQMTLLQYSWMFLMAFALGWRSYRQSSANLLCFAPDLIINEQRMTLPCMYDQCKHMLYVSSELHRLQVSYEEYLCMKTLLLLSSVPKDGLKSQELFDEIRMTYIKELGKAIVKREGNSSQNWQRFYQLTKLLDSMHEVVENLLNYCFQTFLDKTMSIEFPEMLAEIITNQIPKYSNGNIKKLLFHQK

Progesterone receptor = molecular target: T2, Progesterone receptor (Homo sapiens, UniProt P06401); experiment: Binding affinity towards progesterone receptor (PR) by displacing [3H]progesterone.
T2 sequence (P06401 whole entry): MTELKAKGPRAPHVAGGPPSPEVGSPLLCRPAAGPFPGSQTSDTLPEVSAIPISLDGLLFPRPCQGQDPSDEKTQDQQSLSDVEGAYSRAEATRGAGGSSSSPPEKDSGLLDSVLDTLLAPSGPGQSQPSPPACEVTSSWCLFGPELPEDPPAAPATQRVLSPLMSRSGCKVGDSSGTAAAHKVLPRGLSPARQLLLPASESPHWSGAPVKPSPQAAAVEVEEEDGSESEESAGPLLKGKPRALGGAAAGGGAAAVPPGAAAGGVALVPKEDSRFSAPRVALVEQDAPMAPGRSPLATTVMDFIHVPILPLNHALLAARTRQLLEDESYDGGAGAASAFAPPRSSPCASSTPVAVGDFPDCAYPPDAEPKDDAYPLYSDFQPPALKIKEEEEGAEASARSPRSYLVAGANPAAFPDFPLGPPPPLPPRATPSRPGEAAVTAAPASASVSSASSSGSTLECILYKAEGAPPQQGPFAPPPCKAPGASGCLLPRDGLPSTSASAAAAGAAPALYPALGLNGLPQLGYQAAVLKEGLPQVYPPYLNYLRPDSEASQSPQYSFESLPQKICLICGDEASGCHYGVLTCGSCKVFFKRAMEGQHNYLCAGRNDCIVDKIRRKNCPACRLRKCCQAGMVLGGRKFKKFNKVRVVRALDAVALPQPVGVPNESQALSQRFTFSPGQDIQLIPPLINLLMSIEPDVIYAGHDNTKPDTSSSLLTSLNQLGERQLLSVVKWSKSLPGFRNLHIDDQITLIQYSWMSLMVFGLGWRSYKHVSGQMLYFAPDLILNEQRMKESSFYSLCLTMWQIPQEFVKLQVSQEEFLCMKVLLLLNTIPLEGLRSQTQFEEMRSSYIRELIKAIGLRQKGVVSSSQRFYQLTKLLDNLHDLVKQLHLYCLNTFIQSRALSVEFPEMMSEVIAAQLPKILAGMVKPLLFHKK

Glucocorticoid receptor [2] = molecular target: T1, Glucocorticoid receptor; experiment: Effective concentration in HepG2 cells transfected with LUC gene (E-sel-Luc).; assay type: functional, cell-based
Glucocorticoid receptor [3] = molecular target: T1, Glucocorticoid receptor; experiment: Binding affinity towards glucocorticoid receptor (GR) by displacing [3H]dexamethasone

Structure (SMILES)	EC50 (Glucocorticoid receptor [1]) [nM]	Ki (Progesterone receptor) [µM]	EC50 (Glucocorticoid receptor [2]) [nM]	Ki (Glucocorticoid receptor [3]) [nM]
C/C=C\C1Oc2cccc(OC)c2-c2ccc3c(c21)C(C)=CC(C)(C)N3 (centres undefined)	460	–	168	–
COc1cccc2c1-c1ccc3c(c1C(CCO)O2)C(C)=CC(C)(C)N3 (centres undefined)	–	> 5	–	–
COc1cccc2c1-c1ccc3c(c1C(CC(=O)O)O2)C(C)=CC(C)(C)N3 (centres undefined)	> 5000	> 5	> 5000	> 5000
COc1cccc2c1-c1ccc3c(c1CO2)C(C)=CC(C)(C)N3	> 5000	> 5	> 5000	–
C=CCC1Oc2cccc(OC)c2-c2ccc3c(c21)C(C)=CC(C)(C)N3 (stereo in doubt; 37) [AL-43]	520	> 5	450	150
COc1cccc2c1-c1ccc3c(c1C(C1CCCCC1)O2)C(C)=CC(C)(C)N3 (centres undefined)	–	> 5	–	–
COc1cccc2c1-c1ccc3c(c1C(C(C)C)O2)C(C)=CC(C)(C)N3 (centres undefined)	146	> 5	39	–
COc1cccc2c1-c1ccc3c(c1C(CCN(C)C)O2)C(C)=CC(C)(C)N3 (centres undefined)	–	> 5	–	–
C=CCCC1Oc2cccc(OC)c2-c2ccc3c(c21)C(C)=CC(C)(C)N3 (centres undefined)	78	> 5	22	8.1
COc1cccc2c1-c1ccc3c(c1C(Cc1ccccc1)O2)C(C)=CC(C)(C)N3 (centres undefined)	–	> 5	–	–
COc1cccc2c1-c1ccc3c(c1C(CC(C)C)O2)C(C)=CC(C)(C)N3 (centres undefined)	223	> 5	69	9.5

Continued, values first:

EC50 (Glucocorticoid receptor [1]) [nM]	Ki (Progesterone receptor) [µM]	EC50 (Glucocorticoid receptor [2]) [nM]	Ki (Glucocorticoid receptor [3]) [nM]	Structure (SMILES)
264	> 5	90	–	CCC1Oc2cccc(OC)c2-c2ccc3c(c21)C(C)=CC(C)(C)N3 (centres undefined)
> 5000	> 5	> 5000	–	COc1cccc2c1-c1ccc3c(c1C(CC(=O)N(C)C)O2)C(C)=CC(C)(C)N3 (centres undefined)
33	1.8	13	2.5	C=CCC1Oc2cccc(OC)c2-c2ccc3c(c21)C(C)=CC(C)(C)N3 (racemic) [AL-43]
75	> 5	70	5	CCCC1Oc2cccc(OC)c2-c2ccc3c(c21)C(C)=CC(C)(C)N3 (centres undefined)
9	> 5	4	–	COc1cccc2c1-c1ccc3c(c1C(c1cccc(OCSC)c1)O2)C(C)=CC(C)(C)N3 (centres undefined)
–	> 5	–	–	COc1cccc2c1-c1ccc3c(c1C(C1CCCC1)O2)C(C)=CC(C)(C)N3 (centres undefined)
34	0.76	27	–	C#CCC1Oc2cccc(OC)c2-c2ccc3c(c21)C(C)=CC(C)(C)N3 (centres undefined)
400	2.1	144	9	C/C=C/C1Oc2cccc(OC)c2-c2ccc3c(c21)C(C)=CC(C)(C)N3 (centres undefined)
> 5000	> 5	> 5000	3200	CNC(=O)CC1Oc2cccc(OC)c2-c2ccc3c(c21)C(C)=CC(C)(C)N3 (centres undefined)
> 5000	> 5	> 5000	> 5000	COc1cccc2c1-c1ccc3c(c1C(C(N)=O)O2)C(C)=CC(C)(C)N3 (centres undefined)
14	1.3	6.9	–	C=CCC1Oc2cccc(OC)c2-c2ccc3c(c21)C(C)=CC(C)(C)N3 (single isomer, unassigned; (-)) [AL-43]

From ChEMBL document CHEMBL1134311, “Nonsteroidal selective glucocorticoid modulators: the effect of C-5 alkyl substitution on the transcriptional activation/repression profile of 2,5-dihydro-10-methoxy-2,2,4-trimethyl-1H-[1]benzopyrano[3,4-f]quinolines” (J Med Chem, 2001)
